Patent US8889704B2 (Array BioPharma Inc., priority 2011, dated 2014)
Counter-ions that a name gives are not always drawn.

What was measured:
Assay type in all cases: biochemical
[1] = target: PIM-1 (Homo sapiens, UniProt P11309); assay: Enzyme PIM-1 Assay ([33P]ATP incorporation into PIM2tide, filter plate); conditions: averaged IC50; 35 μM ATP, 7.5 μM PIM2tide, 0.25 nM PIM-1, 60 min at 22° C.
Summary of the method: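 Ten-point, 3-fold dilution series (10 μM top, 2% DMSO final) tested for inhibition of 33P transfer from 35 μM ATP to 7.5 μM PIM2tide by 0.25 nM PIM-1. Reaction 60 min, 22 °C, pH 7.4 MOPS/MgCl2 buffer; phosphocellulose capture, scintillation counting, IC50 where fitted POC equals 50.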

[2] = target: T1, GST-tagged recombinant full-length human Pim-2 (Homo sapiens, UniProt Q9P1W9); assay: PIM-2 Assay (as Example A); conditions: averaged IC50; 4 μM ATP, 1.0 μM PIM2tide, 1.5 nM Pim-2
T1 construct: GST-tagged recombinant full-length human Pim-2; GST
Summary of the method: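 IC50 was derived by 4-parameter logistic fitting of percent-of-control data over a 10-point, 3-fold series (highest 10 μM, 2% DMSO). Reactions held 1.5 nM GST-Pim-2 (full-length, human), 4 μM [γ-33P]ATP and 1.0 μM PIM2tide for 60 min at 22 °C, pH 7.4; 33P-peptide captured on P81 filters.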

[3] = target: recombinant rat PIM-3 (Rattus norvegicus, UniProt O70444); assay: PIM-3 Assay (as Example A); conditions: averaged IC50; 30 μM ATP, 3.75 μM PIM2tide, 0.5 nM PIM-3
Summary of the method: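 33P incorporation from 30 μM [γ-33P]ATP into 3.75 μM PIM2tide by 0.5 nM rat PIM-3, 60 min at 22 °C in pH 7.4 MOPS buffer, read by P81 filter capture and scintillation counting. Compounds tested in 3-fold dilutions up to 10 μM final, 2% DMSO; percent-of-control data fitted by 4-parameter logistic for IC50.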

T1 sequence (Q9P1W9 whole entry): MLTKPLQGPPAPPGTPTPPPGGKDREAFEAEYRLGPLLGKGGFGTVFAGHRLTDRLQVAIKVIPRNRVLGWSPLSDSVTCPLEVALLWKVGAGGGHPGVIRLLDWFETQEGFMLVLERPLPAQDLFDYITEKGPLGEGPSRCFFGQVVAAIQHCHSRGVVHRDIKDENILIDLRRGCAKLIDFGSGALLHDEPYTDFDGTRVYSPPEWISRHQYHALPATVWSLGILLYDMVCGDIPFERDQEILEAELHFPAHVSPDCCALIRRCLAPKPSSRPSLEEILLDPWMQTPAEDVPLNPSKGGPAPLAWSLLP
Chain of PIM-1 (P11309 whole entry, species assumed): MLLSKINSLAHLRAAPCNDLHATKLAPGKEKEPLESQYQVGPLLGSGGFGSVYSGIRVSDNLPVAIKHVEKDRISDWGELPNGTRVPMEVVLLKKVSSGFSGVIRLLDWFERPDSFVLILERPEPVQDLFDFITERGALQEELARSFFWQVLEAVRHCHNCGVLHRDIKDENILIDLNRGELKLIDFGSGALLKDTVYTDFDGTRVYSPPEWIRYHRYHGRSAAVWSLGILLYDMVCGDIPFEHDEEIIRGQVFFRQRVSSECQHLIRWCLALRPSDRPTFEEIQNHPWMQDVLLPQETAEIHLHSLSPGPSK

Row | Compound | IC50 [1] [nM] | IC50 [2] [nM] | IC50 [3] [nM]
1 | COCCOc1ccc2ccc(-c3nnc4ccc([C@@H](N5CC[C@H](N)C5)C(F)(F)F)cn34)nc2c1C [Example 117, (S)-1-((R)-2,2,2-trifluoro-1-(3-(7-(2-methoxyethoxy)-8-methylquinolin-2-yl)-[1,2,4]triazolo[4,3-a]pyridin-6-yl)ethyl)pyrrolidin-3-amine hydrochloride] | 0.21 | 210 | 0.4
2 | CCOc1cccc2ccc(-c3nnc4ccc([C@@H](N5CC[C@H](N)C5)C(F)(F)F)cn34)nc12 [Example 79, (S)-1-((R)-1-(3-(8-ethoxyquinolin-2-yl)-[1,2,4]triazolo[4,3-a]pyridin-6-yl)-2,2,2-trifluoroethyl)pyrrolidin-3-amine] | 0.16 | 58 | 3
3 | FC(F)(F)[C@@H](c1ccc2nnc(-c3ccc4ccc(Cl)cc4n3)n2c1)N1C[C@@H]2C[C@H]1CN2 [Example 64, 2-(6-((R)-1-((1S,4S)-2,5-diazabicyclo[2.2.1]heptan-2-yl)-2,2,2-trifluoroethyl)-[1,2,4]triazolo[4,3-a]pyridin-3-yl)-7-chloro quinoline dihydrochloride] | 9.33 | > 100 | 14
4 | CC(C)Oc1cc(F)cc2ccc(-c3nnc4ccc([C@H](N5CCC(C)(O)C5)C(F)(F)F)cn34)nc12 (single isomer, unassigned; diastereomer 1) [Example 202, hydrochloride] | 6.62 | > 1000 | 7.9
5 | COc1cccc2ccc(-c3nnc4ccc([C@H](N5CC[C@](C)(N)C5)C(F)(F)F)cn34)nc12 [Example 217, (S)-3-methyl-1-((S)-2,2,2-trifluoro-1-(3-(8-methoxyquinolin-2-yl)-[1,2,4]triazolo[4,3-a]pyridin-6-yl)ethyl)pyrrolidin-3-amine dihydrochloride] | 0.32 | 40 | 0.4
6 | COc1cc(F)cc2ccc(-c3nnc4ccc([C@@H](N5CC[C@](C)(N)C5)C(F)(F)F)cn34)nc12 [Example 248, (S)-3-methyl-1-((R)-2,2,2-trifluoro-1-(3-(6-fluoro-8-methoxyquinolin-2-yl)-[1,2,4]triazolo[4,3-a]pyridin-6-yl)ethyl)pyrrolidin-3-amine dihydrochloride] | 1.17 | > 1000 | 8.1
7 | N[C@H]1CCN([C@@H](c2ccc3nnc(-c4ccc5ccc(C6CC6)cc5n4)n3c2)C(F)(F)F)C1 (single isomer, unassigned) [Example 12] | 0.4 | 51 | 1.1
8 | N[C@@H]1CCN([C@H](c2ccc3nnc(-c4ccc5ccc(C6CC6)cc5n4)n3c2)C(F)(F)F)C1 [Example 61, (R)-1-((R)-1-(3-(7-cyclopropylquinolin-2-yl)-[1,2,4]triazolo[4,3-a]pyridin-6-yl)-2,2,2-trifluoroethyl)pyrrolidin-3-amine dihydrochloride] | 0.59 | > 100 | 3.7
9 | Cc1cc(OC(C)C)c2nc(-c3nnc4ccc([C@@H](N5CC[C@H](N)C5)C(F)(F)F)cn34)ccc2c1 [Example 128, (S)-1-((R)-2,2,2-trifluoro-1-(3-(8-isopropoxy-6-methylquinolin-2-yl)-[1,2,4]triazolo[4,3-a]pyridin-6-yl)ethyl)pyrrolidin-3-amine hydrochloride] | 0.58 | > 100 | 0.7
10 | CCc1cccc2ccc(-c3nnc4ccc([C@@H](N5C[C@@H]6C[C@H]5CN6)C(F)(F)F)cn34)nc12 [Example 66, 2-(6-((R)-1-((1S,4S)-2,5-diazabicyclo[2.2.1]heptan-2-yl)-2,2,2-trifluoroethyl)-[1,2,4]triazolo[4,3-a]pyridin-3-yl)-8-ethylquinoline dihydrochloride] | 0.92 | 14 | 1.7
11 | CO[C@H](C)COc1cc2nc(-c3nnc4ccc([C@@H](N5CC[C@H](N)C5)C(F)(F)F)cn34)ccc2cc1F [Example 325, (S)-1-((R)-2,2,2-trifluoro-1-(3-(6-fluoro-7-((R)-2-methoxypropoxy)quinolin-2-yl)-[1,2,4]triazolo[4,3-a]pyridin-6-yl)ethyl)pyrrolidin-3-amine di-hydrochloride] | 0.06 | 102 | 0.13
12 | CC(C)Oc1cccc2ccc(-c3nnc4ccc(C(N5C[C@@H](O)[C@H](O)C5)C(F)(F)F)cn34)nc12 (single isomer, unassigned) [Example 82] | 1.12 | > 100 | 30
13 | CC(C)Oc1cccc2ccc(-c3nnc4ccc([C@@H](N5C[C@@H](N)[C@@H](O)C5)C(F)(F)F)cn34)nc12 [Example 129, (3S,4R)-4-amino-1-((R)-2,2,2-trifluoro-1-(3-(8-isopropoxyquinolin-2-yl)-[1,2,4]triazolo[4,3-a]pyridin-6-yl)ethyl)pyrrolidin-3-ol dihydrochloride] | 1.6 | 621 | 7.7
14 | Cc1c(-c2cc3nc(-c4nnc5ccc([C@@H](N6CC[C@H](N)C6)C(F)(F)F)cn45)ccc3cc2F)cnn1C [Example 206, (3 S)-1-((1R)-1-(3-(7-(1,5-dimethyl-1H-pyrazol-4-yl)-6-fluoroquinolin-2-yl)-[1,2,4]triazolo[4,3-a]pyridin-6-yl)-2,2,2-trifluoroethyl)pyrrolidin-3-amine dihydrochloride] | 0.09 | 55 | 0.1
15 | FC(F)(F)[C@H](c1ccc2nnc(-c3ccc4cccc(OCC5CC5)c4n3)n2c1)N1C[C@@H]2C[C@H]1CN2 [Example 76, 2-(6-((S)-1-((1S,4S)-2,5-diazabicyclo[2.2.1]heptan-2-yl)-2,2,2-trifluoroethyl)-[1,2,4]triazolo[4,3-a]pyridin-3-yl)-8-(cyclopropylmethoxy)quinoline dihydrochloride] | 0.4 | 52 | 3.6

Further molecules by falling IC50 [1], results first:

Row | IC50 [1] [nM] | IC50 [2] [nM] | IC50 [3] [nM] | Compound
16 | 4.52 | > 1000 | 39 | CN(C)C(=O)c1ccc2ccc(-c3nnc4ccc([C@@H](N5CC[C@H](N)C5)C(F)(F)F)cn34)nc2c1 [Example 35, 2-(6-((R)-1-((S)-3-aminopyrrolidin-1-yl)-2,2,2-trifluoroethyl)-[1,2,4]triazolo[4,3-a]pyridin-3-yl)-N,N-dimethylquinoline-7-carboxamide dihydrochloride]
17 | 1.84 | 306 | 12 | N[C@H]1CCN([C@@H](c2ccc3nnc(-c4ccc5cccc(OCC6CC6)c5n4)n3c2)C(F)(F)F)C1 (single isomer, unassigned) [Example 10, dihydrochloride]
18 | 0.55 | 695 | 1.6 | CCOc1cc2nc(-c3nnc4ccc([C@@H](N5C[C@@H](N)[C@H](OC)C5)C(F)(F)F)cn34)ccc2cc1F [Example 299, (3R,4R)-1-((R)-1-(3-(7-ethoxy-6-fluoroquinolin-2-yl)-[1,2,4]triazolo[4,3-a]pyridin-6-yl)-2,2,2-trifluoroethyl)-4-methoxypyrrolidin-3-amine dihydrochloride]
19 | 0.46 | 415 | 1.1 | CCOc1cc2nc(-c3nnc4ccc([C@H](C)N5CC[C@H](N)C5)cn34)ccc2cc1F [Example 310, (S)-1-((S)-1-(3-(7-ethoxy-6-fluoroquinolin-2-yl)-[1,2,4]triazolo[4,3-a]pyridin-6-yl)ethyl)pyrrolidin-3-amine trihydrochloride]
20 | 0.19 | 95 | 1.8 | COCC(C)(COC)c1cccc2ccc(-c3nnc4ccc([C@@H](N5CC[C@H](N)C5)C(F)(F)F)cn34)nc12 [Example 110, (S)-1-((R)-1-(3-(8-(1,3-dimethoxy-2-methylpropan-2-yl)quinolin-2-yl)-[1,2,4]triazolo[4,3-a]pyridin-6-yl)-2,2,2-trifluoroethyl)pyrrolidin-3-amine dihydrochloride]
21 | 0.14 | 111 | 0.3 | N[C@H]1CCN([C@H](c2ccc3nnc(-c4ccc5ccc(O[C@@H]6CCC[C@H]6O)cc5n4)n3c2)C(F)(F)F)C1 (single isomer, unassigned; diastereomer 2) [Example 320, di-hydrochloride]
22 | 0.13 | > 100 | 0.4 | Cn1cc(-c2cc3nc(-c4nnc5ccc([C@@H](N6CC[C@H](N)C6)C(F)(F)F)cn45)ccc3cc2F)cn1 [Example 173, (S)-1-((R)-2,2,2-trifluoro-1-(3-(6-fluoro-7-(1-methyl-1H-pyrazol-4-yl)quinolin-2-yl)-[1,2,4]triazolo[4,3-a]pyridin-6-yl)ethyl)pyrrolidin-3-amine tri-hydrochloride]
23 | 0.11 | 65 | 8.1 | C[C@]1(N)CCN([C@H](c2ccc3nnc(-c4ccc5cccc(C6CC6)c5n4)n3c2)C(F)(F)F)C1 [Example 97, (S)-1-((R)-1-(3-(8-cyclopropylquinolin-2-yl)-[1,2,4]triazolo[4,3-a]pyridin-6-yl)-2,2,2-trifluoroethyl)-3-methylpyrrolidin-3-amine dihydrochloride]
